Source: patent US9951064B2, “Azaindazole compounds as inhibitors of T790M containing EGFR mutants” (Genentech, Inc., priority 2013, dated 2018)

Assays:
[1] = target: T1, EGFR T790M L858R (Homo sapiens, UniProt P00533, L858R/T790M); assay: EGFR T790M L858R biochemical assay (Caliper mobility shift); details: 5 μM ATP; apparent Ki (Morrison fit) converted by Cheng-Prusoff, Km of ATP 1.3 μM
T1 construct: purchased Life Technologies PV4879
Protocol: The exemplified compounds described herein were tested according to the assay below. The enzyme data reported in Tables 4-5 is generally a representative of multiple experiments.
Reactions proceed for 30 minutes at room temperature (22° C.) and are terminated with 80 mM 2,2′,2″,2′″-(ethane-1,2-diyldinitrilo)tetraacetic acid (EDTA). Product is detected using the Caliper mobility shift detection method where product and substrate are electrophoretically separated and measured.

[2] = target: T2, phosphor-EGFR in H1975(L585R/T790M) mutant EGFR expressing cells (Homo sapiens, UniProt P00533, L858R/T790M); assay: H1975 pEGFR MSD cellular assay; format: cell-based; details: NCI-H1975 cells, serum starved, 1 hour compound incubation, pEGFR Tyr1068 MSD; read-out: HI975 pEGFR EC50
T2 construct: host or cells: NCI-H1975
T2 sequence (P00533 25-1210 T790M/L858R): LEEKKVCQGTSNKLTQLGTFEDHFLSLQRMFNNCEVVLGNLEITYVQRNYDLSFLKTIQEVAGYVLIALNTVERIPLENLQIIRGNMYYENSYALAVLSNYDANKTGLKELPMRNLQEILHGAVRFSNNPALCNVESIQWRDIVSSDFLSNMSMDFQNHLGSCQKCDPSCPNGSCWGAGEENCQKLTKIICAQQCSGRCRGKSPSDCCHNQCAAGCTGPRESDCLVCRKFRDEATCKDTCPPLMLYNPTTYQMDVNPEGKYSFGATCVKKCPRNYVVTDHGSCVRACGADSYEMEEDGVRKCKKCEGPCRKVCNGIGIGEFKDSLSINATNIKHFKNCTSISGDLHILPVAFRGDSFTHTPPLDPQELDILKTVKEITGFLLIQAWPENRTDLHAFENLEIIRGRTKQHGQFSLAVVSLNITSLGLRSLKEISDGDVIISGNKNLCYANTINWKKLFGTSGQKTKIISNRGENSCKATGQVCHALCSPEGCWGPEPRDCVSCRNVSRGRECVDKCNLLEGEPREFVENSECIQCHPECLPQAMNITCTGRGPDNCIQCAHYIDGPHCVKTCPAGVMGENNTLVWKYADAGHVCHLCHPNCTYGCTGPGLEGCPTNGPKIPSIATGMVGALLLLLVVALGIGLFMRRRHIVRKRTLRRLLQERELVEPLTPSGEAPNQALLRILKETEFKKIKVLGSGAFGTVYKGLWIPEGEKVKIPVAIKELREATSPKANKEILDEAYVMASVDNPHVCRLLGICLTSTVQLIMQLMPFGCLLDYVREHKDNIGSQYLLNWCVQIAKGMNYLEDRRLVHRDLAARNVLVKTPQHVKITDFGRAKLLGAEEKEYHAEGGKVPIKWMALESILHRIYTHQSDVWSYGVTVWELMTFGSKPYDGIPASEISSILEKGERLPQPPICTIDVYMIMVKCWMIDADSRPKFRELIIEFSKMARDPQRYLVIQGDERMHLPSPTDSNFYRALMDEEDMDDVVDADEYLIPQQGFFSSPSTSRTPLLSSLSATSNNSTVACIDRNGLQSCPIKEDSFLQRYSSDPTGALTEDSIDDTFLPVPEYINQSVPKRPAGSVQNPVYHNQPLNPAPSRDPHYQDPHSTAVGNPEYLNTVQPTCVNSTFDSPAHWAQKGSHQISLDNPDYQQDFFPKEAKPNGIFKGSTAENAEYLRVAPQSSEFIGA
Protocol: H1975 pEGFR MSD Cellular Assays
These assays are intended for determining cellular. […] (Meso Scale Discovery Catalog# N31CB-1).
NCI-H1975 (ATCC Catalog# CRL-5908) cells are maintained in medium containing RPMI 1640, 10% FBS, 4 mM L-Glutamine, 1% Penicillin-Streptomycin, and 4.5 g/L Glucose. All cell culture reagents were purchased from Invitrogen/Gibco. Cells are cultured at 37° C. at 5% CO2 and split as recommended by ATCC.
Cell Plating and Serum Starvation:
H1975 cells are harvested and plated into sterile cell culture treated 384 well plates (Greiner catalog #781091) at a density of 30,000 cells/well in 50 ul culture medium and placed in a 37° C. at 5% CO2 incubator for six hours. After six hours, culture medium is aspirated and replaced with serum-free culture medium. Cells are then incubated with the serum-free medium overnight at 37° C. and 5% CO2.
The following day, test compounds are serially diluted in dimethyl sulfoxide (DMSO) and added to cells in serum free medium (final DMSO concentration 0.5%). Assay plates are then incubated for 1 hour at 37° C. and 5% CO2. Following 1 hour of compound incubation cells are then lysed and processed as per the MSD pEGFR assay kit protocol. Cell lysates are added to assay plates pre-coated with antibodies against phosphorylated EGFR. Phosphorylated EGFR in samples are allowed to bind to the capture antibodies overnight at 4° C. The detection antibody (anti-total EGFR, labeled with an electrochemiluminescent SULFO-TAG) is added to the bound lysate and incubated for 1 hour at room temperature. The MSD Read Buffer is added such that when a voltage is applied to the plate electrodes, the labels bound to the electrode surface emit light. The MSD Sector Instrument measures the intensity of the light, and quantitatively measures the amount of phosphorylated-EGFR in the sample. Percent inhibition of EGFR phosphorylation by varying concentrations of test compounds is calculated relative to untreated controls. EC50 values are calculated using the 4 parameter logistic nonlinear regression dose-response model.

[3] = tested on: H1975 (EGFR T790M/L858R) cell proliferation; assay: H1975 proliferation assay (Cell Titer-Glo); format: cell-based; details: Homo sapiens, NCI-H1975, 72 h, NCI-H1975 cells, 72 hour incubation, read-out: H1975 antiproliferative EC50
Protocol: H1975 Proliferation Assays
All cell culture reagents were purchased from Invitrogen/Gibco. Cells are cultured at 37° C. at 5% CO2 and split as recommended by ATCC.

T1 sequence (P00533 25-1210 T790M/L858R): as above

Ki [1]	EC50 [2]	EC50 [3]	SMILES
1.9 nM	154 nM	798 nM	CC(C)n1nc(OC2CCOC2)c2cnc(Nc3ccnc(-c4cnn(S(=O)(=O)C5CC5)c4)n3)cc21 (stereo not drawn) [Example 29, N-(2-(1-(Cyclopropylsulfonyl)-1H-pyrazol-4-yl)pyrimidin-4-yl)-1-isopropyl-3-(tetrahydrofuran-3-yloxy)-1H-pyrazolo[4,3-c]pyridin-6-amine]
1.1 nM	71.1 nM	373 nM	CC(C)n1nc(N[C@H]2CCOC2)c2cnc(Nc3ccnc(-c4cnn(S(=O)(=O)C5CC5)c4)n3)cc21 [Example 39, (S)-N6-(2-(1-(cyclopropylsulfonyl)-1H-pyrazol-4-yl)pyrimidin-4-yl)-1-isopropyl-N3-(tetrahydrofuran-3-yl)-1H-pyrazolo[4,3-c]pyridine-3,6-diamine]
1.1 nM	84.8 nM	775 nM	CC(C)n1nc(N[C@@H]2CCOC2)c2cnc(Nc3ccnc(-c4cnn(S(=O)(=O)C5CC5)c4)n3)cc21 [Example 40, (R)-N6-(2-(1-(cyclopropylsulfonyl)-1H-pyrazol-4-yl)pyrimidin-4-yl)-1-isopropyl-N3-(tetrahydrofuran-3-yl)-1H-pyrazolo[4,3-c]pyridine-3,6-diamine]
1.3 nM	9.4 nM	162 nM	CC(C)n1nc(N2CC[C@@H](CO)C2)c2cnc(Nc3ccnc(-c4cnn(S(=O)(=O)C5CC5)c4)n3)cc21 [Example 41, (R)-(1-(6-(2-(1-(cyclopropylsulfonyl)-1H-pyrazol-4-yl)pyrimidin-4-ylamino)-1-isopropyl-1H-pyrazolo[4,3-c]pyridin-3-yl)pyrrolidin-3-yl)methanol]
0.8 nM	63.8 nM	247 nM	CC(C)n1nc(N)c2cnc(Nc3ccnc(-c4cnn(S(=O)(=O)C5CC5)c4)n3)cc21 [Example 45, N^6-(2-(1-(cyclopropylsulfonyl)-1H-pyrazol-4-yl)pyrimidin-4-yl)-1-isopropyl-1H-pyrazolo[4,3-c]pyridine-3,6-diamine]
2.7 nM	153 nM	951 nM	CC(C)Nc1nn(C(C)C)c2cc(Nc3ccnc(-c4cnn(S(=O)(=O)C5CC5)c4)n3)ncc12 [Example 46, N^6-(2-(1-(cyclopropylsulfonyl)-1H-pyrazol-4-yl)pyrimidin-4-yl)-N^3,1-diisopropyl-1H-pyrazolo[4,3-c]pyridine-3,6-diamine]
0.8 nM	874 nM	3970 nM	CC(C)n1nc(NCCC(N)=O)c2cnc(Nc3ccnc(-c4cnn(S(=O)(=O)C5CC5)c4)n3)cc21 [Example 47, 3-(6-(2-(1-(cyclopropylsulfonyl)-1H-pyrazol-4-yl)pyrimidin-4-ylamino)-1-isopropyl-1H-pyrazolo[4,3-c]pyridin-3-ylamino)propanamide]
0.6 nM	1460 nM	5440 nM	CC(C)n1nc(NCC(N)=O)c2cnc(Nc3ccnc(-c4cnn(S(=O)(=O)C5CC5)c4)n3)cc21 [Example 48, 2-(6-(2-(1-(cyclopropylsulfonyl)-1H-pyrazol-4-yl)pyrimidin-4-ylamino)-1-isopropyl-1H-pyrazolo[4,3-c]pyridin-3-ylamino)acetamide]
23.5 nM	2380 nM	3700 nM	CC(C)c1nn(C(C)C)c2cc(Nc3ccnc(-c4cnn(S(=O)(=O)C5CC5)c4)n3)ncc12 [Example 50, N-(2-(1-(cyclopropylsulfonyl)-1H-pyrazol-4-yl)pyrimidin-4-yl)-1,3-diisopropyl-1H-pyrazolo[4,3-c]pyridin-6-amine]
1.9 nM	74.4 nM	266 nM	CC(C)n1nc(N2CCOCC2)c2cnc(Nc3ccnc(-c4cnn(S(=O)(=O)C5CC5)c4)n3)cc21 [Example 51, N-(2-(1-(cyclopropylsulfonyl)-1H-pyrazol-4-yl)pyrimidin-4-yl)-1-isopropyl-3-morpholino-1H-pyrazolo[4,3-c]pyridin-6-amine]
2.2 nM	90.1 nM	1110 nM	CC(C)n1nc(NC2CCOCC2)c2cnc(Nc3ccnc(-c4cnn(S(=O)(=O)C5CC5)c4)n3)cc21 [Example 52, N^6-(2-(1-(cyclopropylsulfonyl)-1H-pyrazol-4-yl)pyrimidin-4-yl)-1-isopropyl-N^3-(tetrahydro-2H-pyran-4-yl)-1H-pyrazolo[4,3-c]pyridine-3,6-diamine]
< 0.6 nM	144 nM	938 nM	CC(C)n1nc(N2CC(C(N)=O)C2)c2cnc(Nc3ccnc(-c4cnn(S(=O)(=O)C5CC5)c4)n3)cc21 [Example 55, 1-(6-(2-(1-(cyclopropylsulfonyl)-1H-pyrazol-4-yl)pyrimidin-4-ylamino)-1-isopropyl-1H-pyrazolo[4,3-c]pyridin-3-yl)azetidine-3-carboxamide]

The remaining lines, values behind:

SMILES	Ki [1]	EC50 [2]	EC50 [3]
COCCNC(=O)C1CN(c2nn(C(C)C)c3cc(Nc4ccnc(-c5cnn(S(=O)(=O)C6CC6)c5)n4)ncc23)C1 [Example 30, 1-(6-(2-(1-(Cyclopropylsulfonyl)-1H-pyrazol-4-yl)pyrimidin-4-ylamino)-1-isopropyl-1H-pyrazolo[4,3-c]pyridin-3-yl)-N-(2-methoxyethyl)azetidine-3-carboxamide]	0.7 nM	51.3 nM	1450 nM
CC(C)n1nc(N2CCCC2)c2cnc(Nc3ccnc(-c4cnn(CC5CC5)c4)n3)cc21 [Example 31, N-(2-(1-(cyclopropylmethyl)-1H-pyrazol-4-yl)pyrimidin-4-yl)-1-isopropyl-3-(pyrrolidin-1-yl)-1H-pyrazolo[4,3-c]pyridin-6-amine]	1.4 nM	116 nM	1060 nM
CC(C)n1ncc2cnc(Nc3ccnc(-c4cnn(CC5CC5)c4)n3)cc21 [Example 32, N-(2-(1-(cyclopropylmethyl)-1H-pyrazol-4-yl)pyrimidin-4-yl)-1-isopropyl-1H-pyrazolo[4,3-c]pyridin-6-amine]	35.6 nM	3830 nM	498 nM
CC(C)n1ncc2cnc(Nc3ccnc(N4CCC(O)C(C)(C)C4)n3)cc21 (stereo not drawn) [Example 33, 1-(4-((1-isopropyl-1H-pyrazolo[4,3-c]pyridin-6-yl)amino)pyrimidin-2-yl)-3,3-dimethylpiperidin-4-ol]	7.5 nM	1020 nM	110 nM
CC(C)n1nc(N2CCOCC2)c2cnc(Nc3ccnc(N4CCC(O)C(C)(C)C4)n3)cc21 (stereo not drawn) [Example 34]	2.6 nM	111 nM	1410 nM
CCS(=O)(=O)n1cc(-c2nccc(Nc3cc4c(cn3)c(N3CC(CO)C3)nn4C(C)C)n2)cn1 [Example 36, (1-(6-(2-(1-(ethylsulfonyl)-1H-pyrazol-4-yl)pyrimidin-4-ylamino)-1-isopropyl-1H-pyrazolo[4,3-c]pyridin-3-yl)azetidin-3-yl)methanol]	0.7 nM	15.8 nM	397 nM
CC(C)n1nc(N2CC(O)C(F)C2)c2cnc(Nc3ccnc(-c4cnn(S(=O)(=O)C5CC5)c4)n3)cc21 (stereo not drawn) [Example 42, 1-(6-(2-(1-(cyclopropylsulfonyl)-1H-pyrazol-4-yl)pyrimidin-4-ylamino)-1-isopropyl-1H-pyrazolo[4,3-c]pyridin-3-yl)-trans-4-fluoropyrrolidin-3-ol]	1.1 nM	12.5 nM	240 nM
CC(C)n1nc(N2CCN=C2O)c2cnc(Nc3ccnc(-c4cnn(S(=O)(=O)C5CC5)c4)n3)cc21 [Example 43, 1-(6-(2-(1-(cyclopropylsulfonyl)-1H-pyrazol-4-yl)pyrimidin-4-ylamino)-1-isopropyl-1H-pyrazolo[4,3-c]pyridin-3-yl)-4,5-dihydro-1H-imidazol-2-ol]	0.9 nM	37.5 nM	237 nM
CC(C)n1nc(N(C)CC(O)CO)c2cnc(Nc3ccnc(-c4cnn(S(=O)(=O)C5CC5)c4)n3)cc21 (stereo not drawn) [Example 49, 3-((6-(2-(1-(cyclopropylsulfonyl)-1H-pyrazol-4-yl)pyrimidin-4-ylamino)-1-isopropyl-1H-pyrazolo[4,3-c]pyridin-3-yl)(methyl)amino)propane-1,2-diol]	0.7 nM	98 nM	945 nM
